This experiment deals with MAGL (Homo sapiens (Human), UniProt Q99685). Kind of experiment: 2-AG assay (MAGL inhibitory activity, hydrolysis of 2-arachidonoylglycerol followed by mass spectrometry). It counts as biochemical. Conditions: 50 pM MAGL protein, 15 min pre-incubation, 30 min incubation at RT. A digest of the protocol: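 Human MAGL (50 pM final) preincubated 15 min at RT with compound (3-fold dilutions, 12.5 μM to 0.8 pM final) in 50 mM TRIS, 1 mM EDTA, 0.01% Tween-20, 2.5% DMSO. Reaction with […] 2-AG ran 30 min at RT, then was quenched with acetonitrile containing d8-arachidonic acid. Arachidonic acid measured by SPE–triple-quad MS (negative ESI), activity from the arachidonic/d8-arachidonic acid intensity ratio.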
MAGL, sequence (Q99685 whole entry, species assumed): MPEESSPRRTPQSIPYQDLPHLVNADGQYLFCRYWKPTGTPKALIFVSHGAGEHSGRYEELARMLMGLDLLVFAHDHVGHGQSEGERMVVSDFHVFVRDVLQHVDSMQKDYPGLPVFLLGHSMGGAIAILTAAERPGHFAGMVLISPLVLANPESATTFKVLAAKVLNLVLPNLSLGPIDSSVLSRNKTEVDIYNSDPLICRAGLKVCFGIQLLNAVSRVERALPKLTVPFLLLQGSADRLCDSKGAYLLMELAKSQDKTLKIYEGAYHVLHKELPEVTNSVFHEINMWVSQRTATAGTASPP

The IC50 is the concentration needed to halve the response being measured. Low readings indicate greater potency, high ones weaker potency. Consider `COc1cccc(C(=O)N2CCn3c(-c4cccc(Cl)c4)nnc3[C@@H]2C)c1Cl` [Example 116, (2-chloro-3-methoxy-phenyl)-[(5S)-9-(3-chlorophenyl)-5-methyl-1,4,7,8-tetrazabicyclo[4.3.0]nona-1(9),6-dien-4-yl]methanone], for which the IC50 is 2380 nM.

(Values after patent US20250059185A1 (Hoffmann-La Roche Inc., priority 2021, published 2025).)
